Test results: patent US20050112573A1, “Method of detecting toxic substance” (priority 2001, published 2005)

Test system: yeast genes (level of expressed mRNA)
Test: DNA chip analysis of expressed mRNA of yeast genes after 2 h culture with a toxic chemical substance
Format: cell-based, Saccharomyces cerevisiae S288C
In short: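 S. cerevisiae S288C in YPD at 25 °C was exposed at log phase for 2 h to a growth-inhibiting, non-lethal concentration of the chemical. Poly(A) mRNA was reverse-transcribed with Cy3- or Cy5-dUTP and hybridized to a whole-genome yeast DNA chip (65 °C, >12 h). Values are fluorescence ratios versus untreated cells.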

Na2As [(1)]
The level of expressed mRNA in the presence of chemical substance/ (yeast gene YFL010C, ratio to control without chemical substance, 2 h culture): 1.0 | The level of expressed mRNA in the presence of chemical substance/ (yeast gene YFL024C, ratio to control without chemical substance, 2 h culture): 1.0 | The level of expressed mRNA in the presence of chemical substance/The level of expressed mRNA in the absence of chemical substance (yeast gene YFL028C): 1.2 | The level of expressed mRNA in the presence of chemical substance/ (yeast gene YFL032W, ratio to control without chemical substance, 2 h culture): 0.4 | The level of expressed mRNA in the presence of chemical substance/The level of expressed mRNA in the absence of chemical substance (yeast gene YFL043C): 1.0 | The level of expressed mRNA in the presence of chemical substance/in the absence of chemical substance (yeast gene YGL035C): 0.7 | The level of expressed mRNA in the presence of chemical substance/ (yeast gene YGL037C, ratio to control without chemical substance, 2 h culture): 1.5 | The level of expressed mRNA in the presence of chemical substance/ (yeast gene YGL047W, ratio to control without chemical substance, 2 h culture): 1.0 | The level of expressed mRNA in the presence of chemical substance/ (yeast gene YGL053W, ratio to control without chemical substance, 2 h culture): 1.5 | The level of expressed mRNA in the presence of chemical substance/ (yeast gene YGL121C, ratio to control without chemical substance, 2 h culture): 2.6 | The level of expressed mRNA in the presence of chemical substance/The level of expressed mRNA in the absence of chemical substance (yeast gene YGL158W): 1.1 | The level of expressed mRNA in the presence of chemical substance/ (yeast gene YGL199C, ratio to control without chemical substance, 2 h culture): 1.1 | The level of expressed mRNA in the presence of chemical substance/The level of expressed mRNA in the absence of chemical substance (yeast gene YGL229C): 0.6 | The level of expressed mRNA in the presence of chemical substance/ (yeast gene YGR101W, ratio to control without chemical substance, 2 h culture): 1.0 | The level of expressed mRNA in the presence of chemical substance/ (yeast gene YGR110W, ratio to control without chemical substance, 2 h culture): 1.6 | The level of expressed mRNA in the presence of chemical substance/ (yeast gene YGR130C, ratio to control without chemical substance, 2 h culture): 0.9 | The level of expressed mRNA in the presence of chemical substance/The level of expressed mRNA in the absence of chemical substance (yeast gene YGR136W): 0.9 | The level of expressed mRNA in the presence of chemical substance/ (yeast gene YGR154C, ratio to control without chemical substance, 2 h culture): 1.8 | The level of expressed mRNA in the presence of chemical substance/The level of expressed mRNA in the absence of chemical substance (yeast gene YGR189C): 1.1 | The level of expressed mRNA in the presence of chemical substance/The level of expressed mRNA in the absence of chemical substance (yeast gene YGR213C): 5.4 | The level of expressed mRNA in the presence of chemical substance/ (yeast gene YGR221C, ratio to control without chemical substance, 2 h culture): 0.9 | The level of expressed mRNA in the presence of chemical substance/The level of expressed mRNA in the absence of chemical substance (yeast gene YGR257C): 0.7 | The level of expressed mRNA in the presence of chemical substance/in the absence of chemical substance (yeast gene YGR287C): 1.3 | The level of expressed mRNA in the presence of chemical substance/The level of expressed mRNA in the absence of chemical substance (yeast gene YHR004C): 0.9 | The level of expressed mRNA in the presence of chemical substance/The level of expressed mRNA in the absence of chemical substance (yeast gene YHR071W): 1.5 | The level of expressed mRNA in the presence of chemical substance/ (yeast gene YHR138C, ratio to control without chemical substance, 2 h culture): 2.8 | The level of expressed mRNA in the presence of chemical substance/The level of expressed mRNA in the absence of chemical substance (yeast gene YHR139C): 3.0 | The level of expressed mRNA in the presence of chemical substance/The level of expressed mRNA in the absence of chemical substance (yeast gene YHR142W): 1.5 | The level of expressed mRNA in the presence of chemical substance/ (yeast gene YHR199C, ratio to control without chemical substance, 2 h culture): 1.9 | The level of expressed mRNA in the presence of chemical substance/ (yeast gene YIL023C, ratio to control without chemical): 1.1 | The level of expressed mRNA in the presence of chemical substance/ (yeast gene YIL041W, ratio to control without chemical substance, 2 h culture): 1.0 | The level of expressed mRNA in the presence of chemical substance/ (yeast gene YIL087C, ratio to control without chemical substance, 2 h culture): 1.3 | The level of expressed mRNA in the presence of chemical substance/The level of expressed mRNA in the absence of chemical substance (yeast gene YIL123W): 1.0 | The level of expressed mRNA in the presence of chemical substance/The level of expressed mRNA in the absence of chemical substance (yeast gene YIL140W): 0.7 | The level of expressed mRNA in the presence of chemical substance/ (yeast gene YJL057C, ratio to control without chemical substance, 2 h culture): 1.5 | The level of expressed mRNA in the presence of chemical substance/ (yeast gene YJL066C, ratio to control without chemical substance, 2 h culture): 0.9 | The level of expressed mRNA in the presence of chemical substance/in the absence of chemical substance (yeast gene YJL070C): 1.3 | The level of expressed mRNA in the presence of chemical substance/The level of expressed mRNA in the absence of chemical substance (yeast gene YJL073W): 0.8 | The level of expressed mRNA in the presence of chemical substance/ (yeast gene YJL082W, ratio to control without chemical substance, 2 h culture): 1.4 | The level of expressed mRNA in the presence of chemical substance/The level of expressed mRNA in the absence of chemical substance (yeast gene YJL089W): 1.1 | The level of expressed mRNA in the presence of chemical substance/The level of expressed mRNA in the absence of chemical substance (yeast gene YJL116C): 0.9 | The level of expressed mRNA in the presence of chemical substance/ (yeast gene YJL151C, ratio to control without chemical substance, 2 h culture): 1.0 | The level of expressed mRNA in the presence of chemical substance/ (yeast gene YJL152W, ratio to control without chemical substance, 2 h culture): 0.9 | The level of expressed mRNA in the presence of chemical substance/ (yeast gene YJL161W, ratio to control without chemical substance, 2 h culture): 1.7 | The level of expressed mRNA in the presence of chemical substance/in the absence of chemical substance (yeast gene YJL167W): 0.9 | The level of expressed mRNA in the presence of chemical substance/ (yeast gene YJL171C, ratio to control without chemical substance, 2 h culture): 2.3 | The level of expressed mRNA in the presence of chemical substance/in the absence of chemical substance (yeast gene YJL216C): 0.8 | The level of expressed mRNA in the presence of chemical substance/The level of expressed mRNA in the absence of chemical substance (yeast gene YJR004C): 0.2 | The level of expressed mRNA in the presence of chemical substance/ (yeast gene YJR008W, ratio to control without chemical substance, 2 h culture): 1.6 | The level of expressed mRNA in the presence of chemical substance/ (yeast gene YJR054W, ratio to control without chemical): 0.8 | The level of expressed mRNA in the presence of chemical substance/The level of expressed mRNA in the absence of chemical substance (yeast gene YJR086W): 1.2 | The level of expressed mRNA in the presence of chemical substance/The level of expressed mRNA in the absence of chemical substance (yeast gene YKL008C): 1.2 | The level of expressed mRNA in the presence of chemical substance/The level of expressed mRNA in the absence of chemical substance (yeast gene YKL013C): 1.4 | The level of expressed mRNA in the presence of chemical substance/The level of expressed mRNA in the absence of chemical substance (yeast gene YKL039W): 0.8 | The level of expressed mRNA in the presence of chemical substance/The level of expressed mRNA in the absence of chemical substance (yeast gene YKL041W): 1.2 | The level of expressed mRNA in the presence of chemical substance/ (yeast gene YKL071W, ratio to control without chemical substance, 2 h culture): 8.3
